In US20260274818A1, “HETEROCYCLOALKYL BETA-HYDROXY ALKYL AMINES FOR USE IN THE TREATMENT OF HYPERGLYCAEMIA AND DISORDERS CHARACTERISED BY HYPERGLYCAEMIA” (ATROGI AB, priority 2023, published 2026):
Where a name gives a salt, the structure may show the parent alone.

Columns and labels:
L6-myotubes = test: Glucose uptake (3H-2-deoxyglucose) in differentiated L6-myotubes; format: cell-based; settings: compound at 10 μM vs isoproterenol at 10 μM
Method: (§1) L6-myoblasts were grown in Dulbecco's Modified Eagle's Medium (DMEM) containing 1 g/L glucose supplemented with 10% fetal bovine serum, 2 mM L-Glutamine, 50 U/mL penicillin, […] streptomycin and 10 mM HEPES. Cells were plated at 1×10^5 cells per mL in 24-well plates. After reaching 90% confluence the cells were grown in medium containing 2% FBS for 7 days where upon cells differentiated into myotubes.
Differentiated L6-myotubes were serum-starved overnight in medium containing 0.5% fatty-acid free BSA and stimulated with an agonist, with a final concentration of 1×10^−5 M. After 1 h 40 min the cells were washed with warm glucose free medium or PBS twice and another portion of agonist was added to the glucose free medium. After 20 min the cells were exposed to 50 nM ^3H-2-deoxyglucose for another 10 min before washed in ice cold glucose free medium or PBS three times and lysed in 400 μL/well 0.2 M NaOH for 1 h at 60° C. The cell lysate was mixed with 4 mL scintillation buffer (Emulsifier Safe, Perkin Elmer) and the radioactivity was detected in a β-counter (Tri-Carb 4810TR, Perkin Elmer). The activity for each compound is compared to that of isoproterenol.

Intracellular cAMP = test: Measurement of intracellular cAMP levels in differentiated L6 cells (alpha screen cAMP kit); format: cell-based; settings: compound at 10 μM for 15 min vs isoproterenol at 10 μM
Method: as §1
Differentiated cells were serum-starved overnight and stimulated with an agonist, final concentration 1×10^−5 M, for 15 min in stimulation buffer (HBSS supplemented with 1% BSA, 5 mM HEPES and 1 mM IBMX, pH 7.4). The medium was aspirated and 100 μL of 95% EtOH was added to each well of the 24-well plate and cells were kept at −20° C. overnight. The EtOH was allowed to evaporate and 500 μL of lysis buffer (1% BSA, 5 mM HEPES and 0.3% Tween-20, pH 7.4) was added to each well. The plate was kept at −80° C. for 30 min and then at −20° C. until the day of detection when the samples were thawed. Intracellular cAMP levels were detected using an alpha screen cAMP kit (6760635D from Perkin Elmer). The activity for each compound is compared to that of isoproterenol.

Row | SMILES | Biological example 1: glucose uptake, activity compared to that of isoproterenol (L6-myotubes) | Biological example 2: intracellular cAMP levels, activity compared to that of isoproterenol (Intracellular cAMP)
1 | CS(=O)(=O)N1CCC(C[C@@H]2CC[C@H]([C@@H](O)c3cccc(F)c3)N2)CC1.Cl [Example 8, (S)-(3-Fluorophenyl)((2R,5S)-5-((1-(methylsulfonyl)piperidin-4-yl)-methyl)pyrrolidin-2-yl)methanol hydrochloride] | ++ (if it is between 75 and 50% it is denoted with ++) | − (if it less than 25% it is denoted with −)
2 | CS(=O)(=O)N1CCC(C[C@@H]2CC[C@H]([C@H](O)c3cccc(F)c3)N2)CC1.Cl [Example 7, (R)-(3-Fluorophenyl)((2R,5S)-5-((1-(methylsulfonyl)piperidin-4-yl)-methyl)pyrrolidin-2-yl)methanol hydrochloride] | +++ (more than 75% of that of isoproterenol at 10 μM, the activity is denoted with +++) | − (if it less than 25% it is denoted with −)
3 | CS(=O)(=O)N1CCC[C@@H](C[C@@H]2CC[C@H]([C@H](O)c3cccc(F)c3)N2)C1.Cl [Example 14, (R)-(3-Fluorophenyl)((2R,5S)-5-(((S)-1-(methylsulfonyl)piperidin-3-yl)methyl)pyrrolidin-2-yl)methanol hydrochloride] | +++ (more than 75% of that of isoproterenol at 10 μM, the activity is denoted with +++) | − (if it less than 25% it is denoted with −)
4 | CS(=O)(=O)N1CCC[C@@H](C[C@@H]2CC[C@H]([C@@H](O)c3cccc(F)c3)N2)C1.Cl [Example 13, (S)-(3-Fluorophenyl)((2R,5S)-5-(((S)-1-(methylsulfonyl)piperidin-3-yl)methyl)pyrrolidin-2-yl)methanol hydrochloride] | ++ (if it is between 75 and 50% it is denoted with ++) | − (if it less than 25% it is denoted with −)
5 | CC(=O)N1CCC(C[C@@H]2CC[C@H]([C@@H](O)c3cccc(F)c3)N2)CC1.Cl [Example 10, 1-(4-(((2S,5R)-5-((S)-(3-Fluorophenyl)(hydroxy)methyl)pyrrolidin-2-yl)methyl)piperidin-1-yl)ethan-1-one hydrochloride] | − (if it less than 25% it is denoted with −) | − (if it less than 25% it is denoted with −)
6 | Cl.O[C@@H](c1cccc(F)c1)[C@H]1CC[C@@H](CC2CCOCC2)N1 [Example 15, (S)-(3-Fluorophenyl)((2R,5S)-5-((tetrahydro-2H-pyran-4-yl)methyl)-pyrrolidin-2-yl)methanol hydrochloride] | ++ (if it is between 75 and 50% it is denoted with ++) | − (if it less than 25% it is denoted with −)
7 | CC(=O)N1CCC(C[C@@H]2CC[C@H]([C@H](O)c3cccc(F)c3)N2)CC1.Cl [Example 9, 1-(4-(((2S,5R)-5-((R)-(3-Fluorophenyl)(hydroxy)methyl)pyrrolidin-2-yl)methyl)piperidin-1-yl)ethan-1-one hydrochloride] | +++ (more than 75% of that of isoproterenol at 10 μM, the activity is denoted with +++) | − (if it less than 25% it is denoted with −)
8 | O[C@@H](c1cccc(F)c1)[C@H]1CC[C@@H](C[C@@H]2CCCNC2)N1 [Example 4, (S)-(3-Fluorophenyl)((2R,5S)-5-(((S)-piperidin-3-yl)methyl)pyrrolidin-2-yl)methanol dihydrochloride] | ++ (if it is between 75 and 50% it is denoted with ++) | − (if it less than 25% it is denoted with −)
9 | O[C@H](c1cccc(F)c1)[C@H]1CC[C@@H](CC2CCNCC2)N1 [Example 1, (R)-(3-Fluorophenyl)((2R,5S)-5-(piperidin-4-ylmethyl)pyrrolidin-2-yl)-methanol dihydrochloride] | ++ (if it is between 75 and 50% it is denoted with ++) | − (if it less than 25% it is denoted with −)
10 | Cl.O[C@H](c1cccc(F)c1)[C@H]1CC[C@@H](CC2CCOCC2)N1 [Example 16, (R)-(3-Fluorophenyl)((2R,5S)-5-((tetrahydro-2H-pyran-4-yl)methyl)-pyrrolidin-2-yl)methanol hydrochloride] | +++ (more than 75% of that of isoproterenol at 10 μM, the activity is denoted with +++) | + (if it is between 50 and 25% it is denoted with +)
11 | O[C@H](c1cccc(F)c1)[C@H]1CC[C@@H](C[C@H]2CCCNC2)N1 [Example 5, (R)-(3-Fluorophenyl)((2R,5S)-5-(((R)-piperidin-3-yl)methyl)pyrrolidin-2-yl)methanol dihydrochloride] | ++ (if it is between 75 and 50% it is denoted with ++) | − (if it less than 25% it is denoted with −)
12 | O[C@@H](c1cccc(F)c1)[C@H]1CC[C@@H](CC2CCNCC2)N1 [Example 2, (S)-(3-Fluorophenyl)((2R,5S)-5-(piperidin-4-ylmethyl)pyrrolidin-2-yl)-methanol dihydrochloride] | + (if it is between 50 and 25% it is denoted with +) | − (if it less than 25% it is denoted with −)
13 | OC(c1cccc(F)c1)[C@H]1CC[C@@H](CC2CCCNC2)N1 (stereo in doubt) [Example 6, (R)-(3-Fluorophenyl)((2R,5S)-5-(((S)-piperidin-3-yl)methyl)pyrrolidin-2-yl)methanol dihydrochloride] | +++ (more than 75% of that of isoproterenol at 10 μM, the activity is denoted with +++) | − (if it less than 25% it is denoted with −)
14 | OC(c1cccc(F)c1)[C@H]1CC[C@@H](CC2CCCNC2)N1 (stereo in doubt) [Example 3, (S)-(3-Fluorophenyl)((2R,5S)-5-(((R)-piperidin-3-yl)methyl)pyrrolidin-2-yl)methanol dihydrochloride] | + (if it is between 50 and 25% it is denoted with +) | − (if it less than 25% it is denoted with −)
15 | CS(=O)(=O)N1CCC[C@H](C[C@@H]2CC[C@H]([C@H](O)c3cccc(F)c3)N2)C1.Cl [Example 12, (R)-(3-Fluorophenyl)((2R,5S)-5-(((R)-1-(methylsulfonyl)piperidin-3-yl)methyl)pyrrolidin-2-yl)methanol hydrochloride] | +++ (more than 75% of that of isoproterenol at 10 μM, the activity is denoted with +++) | − (if it less than 25% it is denoted with −)
16 | CS(=O)(=O)N1CCC[C@H](C[C@@H]2CC[C@H]([C@@H](O)c3cccc(F)c3)N2)C1.Cl [Example 11, (S)-(3-Fluorophenyl)((2R,5S)-5-(((R)-1-(methylsulfonyl)piperidin-3-yl)methyl)pyrrolidin-2-yl)methanol hydrochloride] | + (if it is between 50 and 25% it is denoted with +) | − (if it less than 25% it is denoted with −)
